Data as given in patent US12623942B2, “Method for extracting salts and temperature- regenerated extracting composition” (ADIONICS, priority 2016, dated 2026).

Columns and labels:
[1] = Selective extraction from a mixture of NaCl, CaCl2, SrCl2 and BaCl2; details: 0.1 Mol/L CEM2 in ASM2/ASM1 60/40 by volume, RT
Method: A brine containing a mixture of NaCl, CaCl2, SrCl2 and BaCl2 is made as described above. The dissolved salt concentrations are indicated in table VIII in mMol/L. The extraction was carried out a second time with changed divalent salt concentrations.
The extracting composition consists of 0.1 Mol/L of CEM2 and of a mixture of two ASMs. This mixture is composed of ASM2 which is usually referred to as [3,5-Bis(Trifluoromethyl)benzyl Alcohol] (35TFMBnOH) of CAS #: 32707-89-4, up to 60% by volume, and of ASM1, referred to as [3-(Trifluoromethyl)benzyl Alcohol](3TFMBnOH), of molecular formula C8H7F3O of MW=176.14 g/Mol and of CAS #: 349-75-7, up to 40% by volume, both serving as a fluidizing agent and as an ASM given its liquid form.
The extraction is carried out as described in example 1 and at room temperature.

[2] = Extraction isotherms of CaCl2 at room temperature and 80° C.; details: 0.1M CEM2 + 1M ASM9 in 12ClPh, Org./Water = 1
Method: Concerning the extraction or back extraction assays at a higher temperature, in particular at 60° C. or at 80° C., a magnetic stirring (at 500 revolutions per minute), for 2 hours, is carried out with an indirect thermostatically-controlled heating in a metal mold on a hotplate.
This series of examples aims to establish two extraction isotherms of CaCl2 at 20° C. and at 80° C. for an extracting composition including 0.1 Mol/L of CEM2, combined with 1 Mol/L of ASM9; the whole dissolved in 1,2-dichlorobenzene.
After carrying out the 7 specific extractions (duplicated) of salts, the amounts of extracted cations in relative molar percentage before and after extraction at room temperature and at water/extracting formulation iso-volume are indicated in table IV: […]
The same series of extractions was then carried out at 80° C. to give table V as follows: […]

[3] = Regeneration (back-extraction) of the extracting composition charged with CaCl2
Method: Two samples of the extracting composition of example 4 with the highest content of CaCl2 at 20° C. were contacted with a saline water at 1 Mol/L of CaCl2 at room temperature to increase the salt charging level of the dissolved CEM2 cation extracting molecules, and thus to get close to their salt saturation level (0.1 Mol/L). Then, these two samples were contacted with an iso-volume of distilled water at 20° C. and stirred. One of the two diphasic samples was then heated up to 80° C. and kept under stirring. The initial salt charging level being assessed at 80 mMol/L, it appears that the latter drops to 15.27 mMol/L from the first regeneration step at 80° C. whereas, during regeneration at 20° C., the salt residual concentration is 29.3 mMol/L. FIG. 4 illustrates the results obtained throughout several serial steps of contacting the hydrophobic organic liquid phase charged with salts with an iso-volume of distilled water. […] In use, this advantage seems to be even more significant when a resin with a high CEM content, and thus a high salt content, is implemented.

## CCN(CC)C(=O)COc1c2cc(C(C)(C)C)cc1Cc1cc(C(C)(C)C)cc(c1OCC(=O)N(CC)CC)Cc1cc(C(C)(C)C)cc(c1OCC(=O)N(CC)CC)Cc1cc(C(C)(C)C)cc(c1OCC(=O)N(CC)CC)Cc1cc(C(C)(C)C)cc(c1OCC(=O)N(CC)CC)Cc1cc(C(C)(C)C)cc(c1OCC(=O)N(CC)CC)C2 [CEM2, 4-tert-butyl-Calix[6]arene hexakis(N,N-diethylacetamide)]
[1]; Table IX, initial 9.17
  Final Concentration Sr^2+: 0 mmol/L
[1]; Table IX, initial 9.17 mMol/L
  % extraction Sr^2+: 100%
[1]; Table IX, initial 9.25
  Final Concentration Ca^2+: 0 mmol/L
[1]; Table IX, initial 9.25 mMol/L
  % extraction Ca^2+: 100%
[1]; Table IX, initial 9.32
  Final Concentration Ba^2+: 0 mmol/L
[1]; Table IX, initial 9.32 mMol/L
  % extraction Ba^2+: 100%
[1]; Table IX, initial 196.04
  Final Concentration Na^+: 195.9835 mmol/L
[1]; Table IX, initial 196.04 mMol/L
  % extraction Na^+: 0%
[1]; Table IX, initial 245.4
  ANIONS Cl− Final Concentration: 203.16 mmol/L
[1]; Table VIII, initial 4.29
  Final Concentration Sr^2+: 0 mmol/L
[1]; Table VIII, initial 4.29 mMol/L
  % extraction Sr^2+: 100%
[1]; Table VIII, initial 4.69
  Final Concentration Ba^2+: 0 mmol/L
[1]; Table VIII, initial 4.69 mMol/L
  % extraction Ba^2+: 100%
[1]; Table VIII, initial 29.13
  Final Concentration Ca^2+: 0.4916 mmol/L
[1]; Table VIII, initial 29.13 mMol/L
  % extraction Ca^2+: 98%
[1]; Table VIII, initial 193.52
  Final Concentration Na^+: 199.4775 mmol/L
[1]; Table VIII, initial 193.52 mMol/L
  % extraction Na^+: 0%
[1]; Table VIII, initial 257.74
  ANIONS Cl− Final Concentration: 213.38 mmol/L
[2]; 0.01M
  Extraction rate at 80° C., CaCl2: 11%
  Extraction rate at room temperature (RT), CaCl2: 39%
[2]; 0.02M
  Extraction rate at 80° C., CaCl2: 16%
  Extraction rate at room temperature (RT), CaCl2: 42%
[2]; 0.03M
  Extraction rate at 80° C., CaCl2: 18%
  Extraction rate at room temperature (RT), CaCl2: 41%
[2]; 0.04M
  Extraction rate at 80° C., CaCl2: 17%
  Extraction rate at room temperature (RT), CaCl2: 40%
[2]; 0.1M
  Extraction rate at 80° C., CaCl2: 18%
  Extraction rate at room temperature (RT), CaCl2: 34%
[2]; 0.2M
  Extraction rate at 80° C., CaCl2: 16%
  Extraction rate at room temperature (RT), CaCl2: 27%
[2]; 0.4M
  Extraction rate at 80° C., CaCl2: 10%
  Extraction rate at room temperature (RT), CaCl2: 16%
[3]; 0.1 Mol/L CEM2 + 1 Mol/L ASM9 in 1,2-dichlorobenzene, initial charge 80 mMol/L CaCl2, iso-volume distilled water, 20° C.
  Salt residual concentration after regeneration: 29.3 mmol/L
[3]; 0.1 Mol/L CEM2 + 1 Mol/L ASM9 in 1,2-dichlorobenzene, initial charge 80 mMol/L CaCl2, iso-volume distilled water, 80° C.
  Salt charging level after the first regeneration step: 15.27 mmol/L
[3]; 80° C. versus 20° C., same CaCl2 overall back-extraction rate
  Reduction in the number of necessary regeneration steps, hot regeneration: 2 fold
